The numbers were not newly measured in patent US20070099889A1, “Use of pseudan and pseudan inclusion bodies” (priority 2005, published 2007), which cites them from elsewhere.

For the data set the following is noted: isolated from filtrates of 4 to 6 week old culture of P. aeruginosa.

For `CCCCCCCCCc1cc(O)c2ccccc2n1` [4-hydroxy-2-nonylquinoline], the antibiotic activity result is given as “exhibit antibiotic activity”.
